Data published in ChEMBL document CHEMBL5052840, “Pharmaceutical compounds and therapeutic methods” (2020).
Active and inactive are the calls of the source. The rule behind the calls is not given here.

Experiments:
[1] = target: T1, Polycomb complex protein BMI-1 (Homo sapiens) (UniProt P35226); test: Inhibition of BMI1 in human Glioblastoma cell 3D spheres at 7 to 10 nM assessed as reduction in BMI1 protein levels measured by Western blotting method; type: cell-based; settings: Glioblastoma cell line, dose 7-10 nM
T1 sequence (whole entry): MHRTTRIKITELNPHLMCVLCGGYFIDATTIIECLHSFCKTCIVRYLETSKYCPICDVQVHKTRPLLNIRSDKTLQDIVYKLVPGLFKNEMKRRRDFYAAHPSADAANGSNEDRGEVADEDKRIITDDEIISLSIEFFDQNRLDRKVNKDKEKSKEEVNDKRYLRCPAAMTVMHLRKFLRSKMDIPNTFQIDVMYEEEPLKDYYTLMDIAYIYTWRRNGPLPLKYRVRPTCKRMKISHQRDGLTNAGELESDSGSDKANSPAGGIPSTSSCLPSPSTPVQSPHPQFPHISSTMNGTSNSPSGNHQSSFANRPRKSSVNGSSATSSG

[2] = target: T1, Polycomb complex protein BMI-1 (Homo sapiens); test: Inhibition of BMI1 in human Glioblastoma cell 3D spheres at 7 to 10 nM assessed as reduction in STAT1 levels measured by Western blotting method; type: cell-based; settings: Glioblastoma cell line, dose 7-10 nM
[3] = Plasma concentration in male C57BL/6 mouse at 10 mg/kg, ip administered as single dose measured at 0.08 hrs measured by LC/MS-MS analysis; type: ADME, organism-based
[4] = Plasma concentration in male C57BL/6 mouse at 10 mg/kg, ip administered as single dose measured at 0.35 hrs measured by LC/MS-MS analysis; type: ADME, organism-based
[5] = Plasma concentration in male C57BL/6 mouse at 10 mg/kg, po administered as single dose measured at 1 hr measured by LC/MS-MS analysis; type: ADME, organism-based
[6] = Brain concentration in male C57BL/6 mouse at 10 mg/kg, ip administered as single dose measured at 1 hr measured by LC/MS-MS analysis; type: ADME, organism-based; settings: read-out: Drug uptake
[7] = Brain concentration in male C57BL/6 mouse at 10 mg/kg, ip administered as single dose measured at 6 hrs measured by LC/MS-MS analysis; type: ADME, organism-based; settings: read-out: Drug uptake
[8] = Brain concentration in male C57BL/6 mouse at 10 mg/kg, ip administered as single dose measured at 12 hrs measured by LC/MS-MS analysis; type: ADME, organism-based; settings: read-out: Drug uptake
[9] = Brain concentration in male C57BL/6 mouse at 10 mg/kg, po administered as single dose measured at 12 hrs measured by LC/MS-MS analysis; type: ADME, organism-based; settings: read-out: Drug uptake
[10] = Ratio of drug level in male C57BL/6 mouse brain to plasma at 10 mg/kg, ip administered as single dose measured at 0.08 hrs measured by LC/MS-MS analysis; type: ADME, organism-based; settings: read-out: BPR
[11] = Ratio of drug level in male C57BL/6 mouse brain to plasma at 10 mg/kg, po administered as single dose measured at 0.08 hrs measured by LC/MS-MS analysis; type: ADME, organism-based; settings: read-out: BPR
[12] = Brain concentration in male C57BL/6 mouse at 10 mg/kg, iv administered as single dose measured at 0.35 hrs measured by LC/MS-MS analysis; type: ADME, organism-based; settings: read-out: Drug uptake

Cc1nc2ccccn2c1-c1csc(Nc2ccc3c(c2)OC(F)(F)O3)n1.Cl
inhibition [1]: Active | inhibition [2]: Active | concentration at 0.08 h [3]: 713 ng/mL | concentration at 0.35 h [4]: 426 ng/mL | concentration at 1 h [5]: 29.3 ng/mL | concentration at 1 h [6]: 159 ng/g | concentration at 6 h [7]: 680 ng/g | concentration at 12 h [8]: 159 ng/g | concentration at 12 h [9]: 3.9 ng/g | Kp at 0.08 h [10]: 1.05 | Kp at 0.08 h [11]: 0.78 | concentration at 0.35 h [12]: 514 ng/g
